Columns and labels:
WNV protease = molecular target: T1, WNV protease (West Nile virus, UniProt Q9Q6P4); test: In vitro protease assay, WNV NS2B-NS3pro; format: biochemical; conditions: for inhibition at 10 µM: read-out: % Inhib. WNV Protease at 10 μM; for inhibition at 25 µM: read-out: % Inhib. WNV Protease at 25 μM
T1 construct: purified viral protease NS2B-N53-pro from DENV-2 or WNV; made in house; host or cells: E. coli TOP10F' cells
Method: (§1) DENV-2 and WNV proteases were expressed from 2 L cultures of TOP10F′ cells (Invitrogen; Carlsbad, Calif.) transformed with expression plasmids pQE30-NS2BH(QR)-NS3pro and WNV clone 107, respectively. Cultures were grown in LB medium supplemented with ampicillin (100 μg/mL) and 0.1% glucose at 37° C. until the OD600 reached 0.6-0.7. The medium was then replaced with fresh LB-ampicillin with 1 mM IPTG. Expression was done at 20° C. for 16 h. Cells were then pelleted and either frozen or used immediately for purification using a Talon metal affinity resin (Clontech; Mountain View, Calif.).
(§2) A reaction mixture was prepared containing 200 mM Tris pH 9.5, 30% glycerol, 0.1% CHAPS detergent (to prevent non-specific aggregation of compounds), 50 nM DENV2QRpro enzyme and 10 μM Bz-Nle-Lys-Arg-Arg-AMC in each 30 μL reaction in duplicate 384-well plates. Aprotinin (2 μM) was used as a positive control. Compounds which inhibited the cleavage of the substrate by at least 50% were considered as positive hits. From the list of positive compounds, the highest scoring hits were selected for further analysis. […] Out of the 29 compounds, only 22 dissolved in DMSO at 5 mM. The activities of the 22 compounds were tested against DENV-2 and WNV proteases at 10 and 25 μM of the inhibitor concentration. […] A control containing only 2% DMSO and the substrate was used to achieve the minimum value of relative fluorescence units (RFU) for background subtraction. Compounds that reduced the protease activity by ≥70% were selected for further analysis.
(§3) Compound I, Compound II, Compound III, Compound IV, Compound V, Compound VI, and Compound VII were analyzed by in vitro protease assays. The compounds were tested for DENV-2 and WNV protease inhibition activity. All assays were done in triplicate in black 96-well plates. Protease activity experiments were performed in vitro using purified viral protease NS2B-N53-pro from DENV-2 or WNV. The reaction mixture of 100 μL/well contained 200 mM Tris pH 9.5, 30% glycerol, 27 nM WNV, 2% DMSO and fluorogenic tetra-peptide substrate Bz-Nle-Lys-Arg-Arg-AMC at concentrations that varied (0.05, 0.1, 0.5, 1, 2, 5, 10, and 25 μM). The percent activities after 30 min versus inhibitor concentration were plotted in GraphPad Prism v5.04 using the four-parameter nonlinear regression (Hill slope method).
(§4) In all assays, the inhibitor-enzyme complex was allowed to form by pre-incubation for 15 min at room temperature (RT) before addition of the substrate. After 5 min incubation, reactions were monitored by the release of free AMC, every 1.5 min for 30 min. The fluorescence emission was recorded at 465 nm following excitation at 385 nm using the Spectra Max Gemini EM (Molecular Devices; Silicon Valley, Calif.). The relative fluorescence units (RFU) were converted to absolute AMC product concentrations using Excel, where the data were transformed using the slope from the linear regression of the AMC calibration curve generated from the fluorescence values versus micromolar (μM) concentrations of free AMC. RFUs, obtained in a standard assay in the absence of inhibitors, were taken as 100% protease activity (or 0% inhibition), the background value (no protease) as 0% activity (or 100% inhibition). Kinetic values were determined using Microsoft Excel and GraphPad Prism 5 (La Jolla, Calif.).

Dengue virus = test: Plaque assay for anti-dengue viral activity; format: cell-based; conditions: for EC50: Dengue virus, read-out: EC50 in virus replication; for virus titer: BHK 21 cells, MOI 1, 48 h, no-treatment 2×10^5
Excerpt: The efficacy of the compounds was also examined in cell-based assays performed in mammalian cells. Mammalian cells are the host for replication of the virus; a compound added to the growth medium of the mammalian cell in which a replicon RNA or dengue virus is replicating, the compound of interest could permeate the cell and interfere with the replication process. If there is a quantitative read-out of replication efficiency, the potency of the inhibitor compound could be evaluated in a quantifiable manner. There are two types of quantifiable assays available both employing mammalian cells; the first is the Baby Hamster Kidney (BHK) or monkey kidney (Vero) cells harboring DENV-2 or WNV replicon RNA, respectively, in a continuously replicating state and these are “stable replicon-expressing” cells. The second assay is infectivity assays in which mammalian cells are infected with DENV and the compound of interest is added at various concentrations and incubated. The inhibition of infectivity of the virus by the compound is measured by the extent of reduction of the titer of virus determined by plaque assay.
BHK 21 cells (1×10^5) were plated onto each well of 12 well-cell culture plate. […] One hour later, the Dengue virus was added (MOI:1). After an additional 48 hours, the supernatant was collected and tested by the plaque assay.
LLC-MK2 cells were plated at 2.5×10^5 cells per well in 6-well plates containing 2 ml culture medium and incubated overnight. Serially diluted supernatants from BHK21 cells treated with compounds at different concentrations as described above were incubated with cells in paired wells of six-well plates for 2 h. Cells were overlaid with 1× media containing 0.5% Sea-Kem GTG agarose (FMC Bioproducts; Philadelphia, Pa.) and were incubated for 7 days at 37° C. and visualized by staining with 0.01% neutral red solution overnight.

DENV-2 protease = molecular target: T2, DENV-2 protease (Dengue virus type 2, UniProt P14340); test: In vitro protease assay, DENV-2 NS2B-NS3pro; format: biochemical, Dengue virus serotype 2; conditions: for inhibition at 10 µM: 10 μM inhibitor, read-out: % Inhib. DENV 2 Protease at 10 μM; for inhibition at 25 µM: 25 μM inhibitor, read-out: % Inhib. DENV 2 Protease at 25 μM; for IC50: substrate Bz-Nle-Lys-Arg-Arg-AMC, triplicate, read-out: IC50 DENV2
T2 construct: expression plasmids pQE30-NS2BH(QR)-NS3pro and WNV clone 107, respectively; made in house; host or cells: E. coli TOP10F' cells
Method: as §1, §2, §3, §4

DENV-4 protease = DENV-4 protease (Dengue virus type 4, UniProt P09866); test: DENV-4 protease inhibition; format: biochemical, Dengue virus serotype 4
DENV-3 protease = DENV-3 protease (Dengue virus type 3, UniProt P27915); test: DENV-3 protease inhibition; format: biochemical, Dengue virus serotype 3
[1] = Cell viability (CellTiter Glo) in BHK21-DENV2 cells; format: cell-based; conditions: hamster, ATP production
Method: (§5) Both drug efficacy and cytotoxicity were measured using the same experimental plate. Prior to compound treatment, BHK21-DENV2 or Vero-WNV cells at […] were plated in 96-well plates with each well containing 10^4 cells. After 24 h incubation, the medium was replaced with 100 μL fresh medium containing different compound concentrations (0.5, 1, 2, 5, 10, and 25 μM) in triplicate wells. Cells were incubated again for 24 h. Cells were then washed with PBS and the luminescence signal from Renilla luciferase activity was read using the Renilla luciferase assay kit (Promega Corp; Fitchburg, Wis.) using a luminometer (Berthold Technologies, Inc.; Oak Ridge, Tenn.). Cell viability (CC50) was measured as amount of ATP production in viable (live) cells using a chemiluminescence detection method (CellTiter Glo kit from Promega Corp) using the Model LB960 luminometer (Berthold Technologies). The EC50 and CC50 values of selected compounds were calculated similar to IC50s using GraphPad Prism v5. Experiments were done in duplicates.
Following a similar protocol, the EC50 and CC50 values of Compounds III and V for inhibition of DENV2 replicon-expressing BHK21 cells and cell viability of those cells treated with Compounds III and V were determined.

DENV-1 protease = DENV-1 protease (Dengue virus type 1, UniProt P17763); test: DENV-1 protease inhibition; format: biochemical, Dengue virus serotype 1
[2] = Cell viability (CellTiter Glo) in Vero-WNV cells; format: cell-based; conditions: monkey, ATP production
Method: as §5

[3] = tested on: WNV replicon-expressing Vero cells; test: WNV replicon assay (Renilla luciferase); format: cell-based; conditions: West Nile virus, 24 h
Excerpt: (§6) The efficacy of the compounds was also examined in cell-based assays performed in mammalian cells. Mammalian cells are the host for replication of the virus; a compound added to the growth medium of the mammalian cell in which a replicon RNA or dengue virus is replicating, the compound of interest could permeate the cell and interfere with the replication process. If there is a quantitative read-out of replication efficiency, the potency of the inhibitor compound could be evaluated in a quantifiable manner. There are two types of quantifiable assays available both employing mammalian cells; the first is the Baby Hamster Kidney (BHK) or monkey kidney (Vero) cells harboring DENV-2 or WNV replicon RNA, respectively, in a continuously replicating state and these are “stable replicon-expressing” cells. […] The inhibition of infectivity of the virus by the compound is measured by the extent of reduction of the titer of virus determined by plaque assay.
(§7) Both drug efficacy and cytotoxicity were measured using the same experimental plate. […] Cells were then washed with PBS and the luminescence signal from Renilla luciferase activity was read using the Renilla luciferase assay kit (Promega Corp; Fitchburg, Wis.) using a luminometer (Berthold Technologies, Inc.; Oak Ridge, Tenn.). […] The EC50 and CC50 values of selected compounds were calculated similar to IC50s using GraphPad Prism v5. […]

[4] = tested on: DENV2 replicon-expressing BHK21 cells; test: DENV2 replicon assay (Renilla luciferase); format: cell-based; conditions: Dengue virus, DENV2, BHK-21
Excerpt: as §6, §7

T1 sequence (Q9Q6P4 1506-1683): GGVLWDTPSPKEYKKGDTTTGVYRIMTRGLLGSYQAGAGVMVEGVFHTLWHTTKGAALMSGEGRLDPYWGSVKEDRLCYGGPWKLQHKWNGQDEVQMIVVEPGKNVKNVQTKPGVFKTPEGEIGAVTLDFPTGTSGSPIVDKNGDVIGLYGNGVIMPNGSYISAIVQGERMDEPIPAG
T1 sequence (Q9Q6P4 1375-1505): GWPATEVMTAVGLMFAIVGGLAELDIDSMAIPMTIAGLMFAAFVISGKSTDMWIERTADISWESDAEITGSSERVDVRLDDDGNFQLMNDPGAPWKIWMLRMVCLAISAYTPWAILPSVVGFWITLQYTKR
T2 sequence (P14340 1476-1653): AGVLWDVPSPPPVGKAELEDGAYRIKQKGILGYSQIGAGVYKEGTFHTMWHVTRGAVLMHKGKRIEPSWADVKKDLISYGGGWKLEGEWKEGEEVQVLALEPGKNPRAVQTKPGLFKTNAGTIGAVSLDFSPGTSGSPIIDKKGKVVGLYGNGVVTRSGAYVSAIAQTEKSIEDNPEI
Sequence of DENV-3 protease (P27915 1474-1651): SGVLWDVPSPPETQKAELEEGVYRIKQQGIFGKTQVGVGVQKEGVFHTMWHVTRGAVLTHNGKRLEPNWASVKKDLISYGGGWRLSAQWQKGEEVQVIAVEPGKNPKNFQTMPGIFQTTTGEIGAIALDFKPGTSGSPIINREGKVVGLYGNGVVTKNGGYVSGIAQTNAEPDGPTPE
Sequence of DENV-3 protease (P27915 1392-1438): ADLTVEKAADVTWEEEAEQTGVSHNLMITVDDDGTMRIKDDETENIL
Sequence of DENV-4 protease (P09866 1475-1652): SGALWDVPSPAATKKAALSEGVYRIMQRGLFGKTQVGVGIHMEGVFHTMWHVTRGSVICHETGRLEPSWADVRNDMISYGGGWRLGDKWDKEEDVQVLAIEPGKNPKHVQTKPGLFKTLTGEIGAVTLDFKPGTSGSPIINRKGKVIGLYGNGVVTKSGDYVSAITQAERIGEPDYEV
Sequence of DENV-4 protease (P09866 1393-1439): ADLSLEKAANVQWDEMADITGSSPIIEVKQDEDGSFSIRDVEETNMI
Sequence of DENV-1 protease (P17763 1394-1440): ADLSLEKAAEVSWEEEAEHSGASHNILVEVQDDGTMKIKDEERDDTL
Sequence of DENV-1 protease (P17763 1476-1653): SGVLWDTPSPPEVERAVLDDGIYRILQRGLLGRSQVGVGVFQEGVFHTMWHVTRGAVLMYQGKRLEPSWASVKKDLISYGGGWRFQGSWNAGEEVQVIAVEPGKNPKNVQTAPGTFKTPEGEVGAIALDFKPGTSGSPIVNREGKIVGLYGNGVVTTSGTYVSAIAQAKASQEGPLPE

Compound: Cc1ccc(C(=O)c2cc(O)c(O)c([N+](=O)[O-])c2)cc1 [Compound VI, Tolcapone, reference compound]
- IC50 (WNV protease): 0.68 µM
- inhibition at 10 µM (WNV protease): 99%
- inhibition at 25 µM (WNV protease): 67%
- fold reduction of virus titer (Dengue virus; 5 μM compound): greater than 100 fold
- EC50 (Dengue virus): < 5 µM
- inhibition at 10 µM (DENV-2 protease): 90%
- inhibition at 25 µM (DENV-2 protease): 92%
- IC50 (DENV-2 protease): 0.758 µM

Compound: Cc1ccc(C2=NC(=O)/C(=C/c3cc(O)c(O)c(Br)c3)S2)cc1 [Compound III]
- IC50 (DENV-4 protease): 3.92 ± 0.05 µM
- IC50 (DENV-3 protease): 4.8 ± 1.1 µM
- CC50 at 24 h [1]: 407 µM
- IC50 (DENV-1 protease): 5.99 ± 1.4 µM
- IC50 (WNV protease): 1.3 µM
- inhibition at 10 µM (WNV protease): 98%
- inhibition at 25 µM (WNV protease): 98%
- CC50 at 24 h [2]: 130 µM
- fold reduction of virus titer (Dengue virus; 10 μM compound): 3.3 fold
- virus titer (Dengue virus; 10 μM compound): 6×10^4 PFU/ml
- fold reduction of virus titer (Dengue virus; 15 μM compound): 5 fold
- virus titer (Dengue virus; 15 μM compound): 4×10^4 PFU/ml
- fold reduction of virus titer (Dengue virus; 20 μM compound): 100 fold
- virus titer (Dengue virus; 20 μM compound): 2×10^3 PFU/ml
- EC50 (Dengue virus): < 10 µM
- inhibition at 10 µM (DENV-2 protease): 96%
- inhibition at 25 µM (DENV-2 protease): 94%
- IC50 (DENV-2 protease): 3.4 µM
- EC50 [3]: 3.7 µM
- EC50 [4]: 7.2 µM

Compound: COCc1cc(C)nc(SCC(=O)c2ccc(O)c(O)c2)c1C#N [Compound I]
- IC50 (WNV protease): 9 µM
- inhibition at 10 µM (WNV protease): 54%
- inhibition at 25 µM (WNV protease): 95%
- inhibition at 10 µM (DENV-2 protease): 51%
- inhibition at 25 µM (DENV-2 protease): 89%
- IC50 (DENV-2 protease): 10.5 µM

Compound: Cc1sc2nc(SCC(=O)c3ccc(O)c(O)c3)[nH]c(=O)c2c1C [Compound II]
- IC50 (WNV protease): 9.7 µM
- inhibition at 10 µM (WNV protease): 45%
- inhibition at 25 µM (WNV protease): 92%
- inhibition of the virus titer (Dengue virus; 20 μM compound): did not show a significant inhibition
- inhibition at 10 µM (DENV-2 protease): 57%
- inhibition at 25 µM (DENV-2 protease): 92%
- IC50 (DENV-2 protease): 8.8 µM

Compound: CCOC(=O)c1oc2c(O)c(O)ccc2c(=O)c1-c1cnn(-c2ccccc2)c1 [Compound V]
- IC50 (DENV-4 protease): 5.32 ± 0.6 µM
- IC50 (DENV-3 protease): 5 ± 1.4 µM
- CC50 at 24 h [1]: 202 µM
- IC50 (DENV-1 protease): 6.4 ± 1.2 µM
- IC50 (WNV protease): 4.3 µM
- inhibition at 10 µM (WNV protease): 75%
- inhibition at 25 µM (WNV protease): 95%
- CC50 at 24 h [2]: 168 µM
- inhibition at 10 µM (DENV-2 protease): 75%
- inhibition at 25 µM (DENV-2 protease): 86%
- IC50 (DENV-2 protease): 4.8 µM
- EC50 [3]: 9.7 µM
- EC50 [4]: 11.7 µM

Compound: O=c1c(Oc2ccccc2)c(C(F)(F)F)oc2c(O)c(O)ccc12 [Compound IV]
- IC50 (WNV protease): 6.7 µM
- inhibition at 10 µM (WNV protease): 71%
- inhibition at 25 µM (WNV protease): 95%
- EC50 (Dengue virus): < 20 µM
- inhibition at 10 µM (DENV-2 protease): 63%
- inhibition at 25 µM (DENV-2 protease): 82%
- IC50 (DENV-2 protease): 8.5 µM

Compound: O=C(OC[C@H]1OC(OC(=O)c2cc(O)c(O)c(OC(=O)c3cc(O)c(O)c(O)c3)c2)C(OC(=O)c2cc(O)c(O)c(OC(=O)c3cc(O)c(O)c(O)c3)c2)[C@@H](OC(=O)c2cc(O)c(O)c(OC(=O)c3cc(O)c(O)c(O)c3)c2)C1OC(=O)c1cc(O)c(O)c(OC(=O)c2cc(O)c(O)c(O)c2)c1)c1cc(O)c(O)c(OC(=O)c2cc(O)c(O)c(O)c2)c1 (some centres unmarked) [Compound VII, Tannic acid, reference compound]
- IC50 (WNV protease): 0.312 µM
- inhibition at 10 µM (WNV protease): 98%
- inhibition at 25 µM (WNV protease): 96%
- EC50 (Dengue virus): < 5 µM
- inhibition at 10 µM (DENV-2 protease): 99%
- inhibition at 25 µM (DENV-2 protease): 101%
- IC50 (DENV-2 protease): 0.768 µM

Source: patent publication US10471082B2, “Flavivirus protease inhibitors” (priority 2012, dated 2019)
